Data from publication PMC10421158, “In Vitro and In Silico Analysis of the Anticancer Effects of Eurycomanone and Eurycomalactone from Eurycoma longifolia” (Plants, 2023).
Where two headings read alike, the source gives them in different places.

Columns and labels:
[1] = test system: ovarian (A2780), cervical (HeLa) and colorectal (HT29) cancer cells; assay: SRB assay, range over the three cancer cell lines; type: cell-based; settings: 72 h, read-out: range of IC50 values in cancer cell lines
Source text: (§1) The cancer cell lines used for this study were ovarian cancer (A2780), cervical cancer (HeLa) and colorectal cancer (HT29) as well as normal cardiomyocyte (H9C2) and liver (WRL-68) cell lines. All cell lines were purchased from American Type Culture Collections except A2780, which were purchased from the European Collection of Authenticated Cell Cultures. These cells were subcultured in Dulbecco’s Modified Eagle’s medium (Sigma-Aldrich, St. Louis, MO, USA) and supplemented with 10% fetal bovine serum (Sigma, USA), 1% penicillin–streptomycin (Sigma, USA), 1% amphotericin B (Sigma, USA) and 1% gentamicin (Sigma, USA). The cells were seeded in each well of 96 well plates and incubated in a humidified incubator at 37 °C and 5% carbon dioxide in air for 24 h. Each cell line was then treated with eurycomanone and eurycomalactone at five different concentrations (0.08, 0.4, 2, 10 and 50 µM) in triplicate. Cisplatin and methotrexate (Sigma, USA), known chemo-drugs, were also treated on these cell lines at five different concentrations (0.08, 0.4, 2, 10, 50 µM for cisplatin, 0.0008, 0.004, 0.02, 0.1, 0.5 µM for methotrexate) for the comparative studies. The treated cells were then incubated in the same incubator with the mentioned conditions for 72 h. The experiment was repeated at least three times.
Briefly, 50 μL of ice cold tricholoroacetic acid (TCA) was added to each well and allowed to stand for 30 min at room temperature, followed by rinsing each well with tap water. Then, 100 μL of 0.4% SRB was added to each well to stain living cells for 30 min followed by a rinse with 1% acetic acid. Finally, 100 μL of Tris buffer was added to each well and the optical density (OD) of the treated and nontreated cells were read at 492 nm with a Magellan V.4 microtiter plate reader (Tecan, Salzburg, Austria). The percentage of cell viability was calculated based on (OD492nm of the treated cells/OD492nm of the nontreated cells) × 100. The IC50 values were determined from the dose–response curve of percentage of cell viability versus the concentration of the compounds (μM). […]

[2] = test system: colorectal (HT29) cancer cell line; assay: Sulforhodamine B (SRB) cell viability assay, HT-29; type: cell-based; settings: read-out: IC50 HT-29
Source text: as §1
(§2) Sulforhodamine B (SRB) assay had been performed after the treated cells were incubated for 72 h. Briefly, 50 μL of ice cold tricholoroacetic acid (TCA) was added to each well and allowed to stand for 30 min at room temperature, followed by rinsing each well with tap water. Then, 100 μL of 0.4% SRB was added to each well to stain living cells for 30 min followed by a rinse with 1% acetic acid. Finally, 100 μL of Tris buffer was added to each well and the optical density (OD) of the treated and nontreated cells were read at 492 nm with a Magellan V.4 microtiter plate reader (Tecan, Salzburg, Austria). The percentage of cell viability was calculated based on (OD492nm of the treated cells/OD492nm of the nontreated cells) × 100. The IC50 values were determined from the dose–response curve of percentage of cell viability versus the concentration of the compounds (μM). Cells viability assay for each treatment was performed in triplicate in at least three independent experiments, and the IC50 values are given as the mean ± SEM.

[3] = test system: cervical (HeLa) cancer cell line; assay: Sulforhodamine B (SRB) cell viability assay, HeLa; type: cell-based; settings: 72 h, read-out: IC50 HeLa
Source text: as §1, §2

[4] = test system: liver (WRL-68) normal cell line; assay: Sulforhodamine B (SRB) cell viability assay, WRL-68; type: cell-based; settings: read-out: IC50 WRL-68
Source text: as §1, §2

A2780 cells = assay: Apoptotic Hoechst 33342 assay, A2780; type: cell-based
Method: (§3) A2780, HT-29 and HeLa cancer cell lines were chosen for evaluating the apoptotic effects of eurycomanone and eurycomalactone. The morphological changes of cells undergoing apoptosis were visualised under a fluoresecence microscope after performing the Hoechst 33342 assay. Briefly, 10 × 10^4 cells were seeded for 500 µL/well of four Labtek® Chamber Slides (Thermo Fisher Scientific, Waltham, MA, USA) and incubated in 5% carbon dioxide in air for 24 h for the cells’ attachment. The cells were treated with concentrations of IC50/5, IC50 and IC50 × 5 values of eurycomanone and eurycomalactone in different wells and further incubated for 6, 24 and 48 h, respectively. Nontreated cells were also included in the experimental design, which acted as a negative control in this study. Following this, the media from each well were discarded and cells were fixed with 4% (w/v) paraformaldehyde for 30 min. The cells were then washed with cold phosphate buffer solution (PBS) prior to staining using Hoechst 33342, according to the method of [26]. Quantitative assessment of apoptotic cells were determined by counting apoptotic nuclei from five randomly chosen areas corroborating visual impression based on the morphology shown in Figure 3 and Figure 4. The apoptotic index (number of apoptotic nuclei per total nuclei × 100) was expressed as a percentage of the mean ± S.E.M and analysed using ANOVA followed by Tukey’s multiple comparison test.

HeLa cells = assay: Apoptotic Hoechst 33342 assay, HeLa; type: cell-based
Method: as §3

[5] = test system: cardiomyocyte (H9C2) normal cell line; assay: Sulforhodamine B (SRB) cell viability assay, H9C2; type: cell-based; settings: read-out: IC50 H9C2
Source text: as §1, §2

HT-29 cells = assay: Apoptotic Hoechst 33342 assay, HT-29; type: cell-based
Method: as §3

[6] = test system: ovarian (A2780) cancer cell line; assay: Sulforhodamine B (SRB) cell viability assay, A2780; type: cell-based; settings: read-out: IC50 A2780
Source text: as §1
as §2, with “Briefly,” for “Sulforhodamine B (SRB) assay had been performed after the treated cells were incubated for 72 h. Briefly,”

[7] = test system: Cytochrome P450 (CYP) enzymes; parameters: method as in PMID 23881640; settings: in vitro assay; cited from earlier work
[8] = parameters: method as in PMID 16206032; settings: in vivo, given orally; cited from earlier work
[9] = SRB, 72 h, normal cell line, mean ± SEM (n = 9)

SMILES	IC50 [1] [nM]	IC50 ([2]; Homo sapiens, HT-29, 72 h) [nM]	IC50 ([3]; Homo sapiens, HeLa) [nM]	IC50 ([4]; Homo sapiens, WRL68, 72 h) [nM]	Apoptotic index (A2780 cells; A2780, IC50, 6 h)	Apoptotic index (A2780 cells; A2780, IC50, 24 h)	Apoptotic index (A2780 cells; A2780, IC50, 48 h)	Apoptotic index (A2780 cells; A2780, IC50/5, 6 h)	Apoptotic index (A2780 cells; A2780, IC50/5, 24 h)	Apoptotic index (A2780 cells; A2780, IC50/5, 48 h)	Apoptotic index (A2780 cells; A2780, IC50 × 5, 6 h)	Apoptotic index (A2780 cells; A2780, IC50 × 5, 24 h)	Apoptotic index (A2780 cells; A2780, IC50 × 5, 48 h)	Apoptotic index (HeLa cells; IC50, 6 h)	Apoptotic index (HeLa cells; IC50, 24 h)	Apoptotic index (HeLa cells; IC50, 48 h)	Apoptotic index (HeLa cells; IC50/5, 6 h)	Apoptotic index (HeLa cells; IC50/5, 24 h)	Apoptotic index (HeLa cells; IC50/5, 48 h)	Apoptotic index (HeLa cells; IC50 × 5, 6 h)	also measured
CC1=CC(=O)[C@@H](O)[C@@]2(C)[C@H]1CC(=O)[C@@]1(C)[C@H]3C(=O)O[C@H]([C@@H]3C)[C@H](O)[C@@H]12 [Eurycomalactone]	1600 to 2460	2210 ± 49	1600 ± 120	2710 ± 42	4.26 ± 0.64 ^b/x %	6.29 ± 0.21 ^ab/y %	7.93 ± 2.28 ^b/xz %	3.84 ± 0.10 ^a/x %	4.12 ± 0.16 ^a/y %	5.16 ± 0.065 ^a/xz,yz %	15.81 ± 0.38 ^ac,bc/x %	Cells died and completely detached ^ac,bc/xy	Cells died and completely detached ^ac,bc/xz	17.67 ± 0.77 ^ab/x %	32.00 ± 1.57 ^ab/xy %	36.71 ± 1.19 ^ab/xz,yz %	5.45 ± 0.23 ^a/x %	8.94 ± 0.21 ^a/xy %	14.78 ± 0.12 ^a/xz,yz %	31.87 ± 2.19 ^ac,bc/x %	Apoptotic index (HeLa cells; IC50 × 5, 24 h): 62.20 ± 1.35 ^ac,bc/xy %; Apoptotic index (HeLa cells; IC50 × 5, 48 h): 100.00 ± 0.00 ^ac,bc/xz,yz %; IC50 ([5]; Rattus norvegicus, H9c2, 72 h): 7000 ± 430 nM; Apoptotic index (HT-29 cells; HT-29, IC50, 6 h): 4.51 ± 0.23 ^b/x %; Apoptotic index (HT-29 cells; HT-29, IC50, 24 h): 12.41 ± 0.77 ^ab/xy %; Apoptotic index (HT-29 cells; HT-29, IC50, 48 h): 14.28 ± 0.84 ^ab/xz,yz %; Apoptotic index (HT-29 cells; HT-29, IC50/5, 6 h): 3.79 ± 0.45 ^a/x %; Apoptotic index (HT-29 cells; HT-29, IC50/5, 24 h): 7.71 ± 0.51 ^a/xy %; Apoptotic index (HT-29 cells; HT-29, IC50/5, 48 h): 8.86 ± 0.68 ^a/xz %; Apoptotic index (HT-29 cells; HT-29, IC50 × 5, 6 h): 6.52 ± 1.22 ^ac,bc/x %; Apoptotic index (HT-29 cells; HT-29, IC50 × 5, 24 h): 20.21 ± 1.52 ^ac,bc/xy %; Apoptotic index (HT-29 cells; HT-29, IC50 × 5, 48 h): 100.00 ± 0.00 ^ac,bc/xz,yz %; IC50 ([6]; Homo sapiens, A2780, 72 h): 2460 ± 81 nM
N.N.[Cl][Pt][Cl] [Cisplatin, reference compound]																					IC50 ([2]; SRB, 72 h, mean ± SEM (n = 9)): 1380 ± 37 nM; IC50 ([3]; SRB, mean ± SEM (n = 9)): 1540 ± 120 nM; IC50 [4, 9]: 1130 ± 98 nM; IC50 [5, 9]: 14100 ± 1140 nM; IC50 ([6]; SRB, 72 h, mean ± SEM (n = 9)): 1770 ± 18 nM
C=C1[C@@H](O)[C@]2(O)OC[C@]34[C@H]2[C@@]2(C)[C@H](O)C(=O)C=C(C)[C@@H]2C[C@H]3OC(=O)[C@H](O)[C@@]14O [Eurycomanone]	1220 to 4580	1220 ± 110	4580 ± 90	1340 ± 46	8.48 ± 0.60 ^ab/x %	13.13 ± 1.30 ^ab/y %	31.74 ± 3.19 ^ab/xz,yz %	4.30 ± 0.34 ^a/x %	7.11 ± 1.60 ^a/xy %	14.72 ± 0.59 ^a/xz,yz %	13.01 ± 0.29 ^ac,bc/x %	28.90 ± 0.93 ^ac,bc/xy %	100.00 ± 0.00 ^ac,bc/xz,yz %	19.98 ± 0.76 ^ab/x %	52.57 ± 1.40 ^ab/y %	61.16 ± 0.63 ^ab/xz,yz %	8.42 ± 0.20 ^a/x %	13.76 ± 1.26 ^a/xy %	16.79 ± 0.92 ^a/xz,yz %	41.37 ± 0.24 ^ac,bc/x %	inhibition of cytochromes in vitro [7]: no inhibition; Apoptotic index (HeLa cells; IC50 × 5, 24 h): 94.56 ± 1.16 ^ac,bc/xy %; Apoptotic index (HeLa cells; IC50 × 5, 48 h): 100.00 ± 0.00 ^ac,bc/xz,yz %; IC50 ([5]; Rattus norvegicus, H9c2, 72 h): > 50000 nM; Apoptotic index (HT-29 cells; HT-29, IC50, 6 h): 5.24 ± 0.17 ^b/x %; Apoptotic index (HT-29 cells; HT-29, IC50, 24 h): 6.30 ± 1.01 ^b/y %; Apoptotic index (HT-29 cells; HT-29, IC50, 48 h): 14.80 ± 0.56 ^ab/xz,yz %; Apoptotic index (HT-29 cells; HT-29, IC50/5, 6 h): 4.08 ± 0.81 ^a/x %; Apoptotic index (HT-29 cells; HT-29, IC50/5, 24 h): 4.18 ± 0.21 ^a/y %; Apoptotic index (HT-29 cells; HT-29, IC50/5, 48 h): 4.24 ± 0.20 ^a/z %; Apoptotic index (HT-29 cells; HT-29, IC50 × 5, 6 h): 5.97 ± 0.35 ^ac/x %; Apoptotic index (HT-29 cells; HT-29, IC50 × 5, 24 h): 10.95 ± 0.71 ^ac,bc/y %; Apoptotic index (HT-29 cells; HT-29, IC50 × 5, 48 h): 26.20 ± 1.48 ^ac,bc/xz,yz %; oral bioavailability [8]: poorly bioavailable; IC50 ([6]; Homo sapiens, A2780, 72 h): 1370 ± 130 nM
CN(Cc1cnc2nc(N)nc(N)c2n1)c1ccc(C(=O)N[C@@H](CCC(=O)O)C(=O)O)cc1 [Methotrexate, reference compound]																					IC50 ([1]; range over A2780, HeLa, HT29, SRB): 16 to 94 nM; IC50 ([2]; Homo sapiens, HT-29, SRB, 72 h, mean ± SEM (n = 9)): 59 ± 1 nM; IC50 ([3]; Homo sapiens, HeLa, SRB, mean ± SEM (n = 9)): 94 ± 4.3 nM; IC50 ([4]; Homo sapiens, WRL68, SRB, 72 h, normal cell line, mean ± SEM (n = 9)): 15 ± 0.41 nM; IC50 ([5]; Rattus norvegicus, H9c2, SRB, 72 h, normal cell line, mean ± SEM (n = 9)): > 50000 nM; IC50 ([6]; Homo sapiens, A2780, SRB, 72 h, mean ± SEM (n = 9)): 16 ± 0.5 nM
